According to patent US7304093B2, “Ketone compounds and compositions for cholesterol management and related uses” (Esperion Therapeutics, Inc., priority 2000, dated 2007):
Like-named read-outs stand apart in the source and are kept apart here. Marks after values point to notes of the source that are not given here.

System: female obese Zucker rats
Assay: Serum lipid and glycemic control variables in chow-fed obese female Zucker rats, daily oral gavage for two weeks
Format: in vivo, rat
Settings: for change in vivo at 100 mg/kg: Rattus norvegicus, Table 9; for Glucose / HDL-C / NEFA / Non-HDL-C / TG / Insulin: serum, mean ± SEM; for Insulin: Tables 10, 11
Outline: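 Female obese Zucker fa rats, 10–12 wk, 400–500 g, chow-fed, dosed daily by oral gavage for 14 days in CMC/Tween 20 or ethanol/PEG-200 vehicle. After a 6-h fast, serum was sampled pre-dose, day 7 and day 14. Triglycerides, total cholesterol, NEFA and β-hydroxybutyrate were measured, plus lipoprotein cholesterol by gel-filtration profiling.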

`CC(C)(CCCCC(=O)CCCCC(C)(C)C(=O)O)C(=O)O` [Compound 210c, 7-Oxo-2,2,12,12-tetramethyltridecanedioic acid] was tested, and the “Insulin, percent increase (+) or decrease (−) of the pretreatment control value” (10 mg/kg daily oral, 1 wk) was “(−27) percent”, the “Non-HDL-C, percent increase (+) or decrease (−) of the pretreatment control value” (10 mg/kg daily oral, 1 wk) was “(−35) percent” and the “HDL-C, percent increase (+) or decrease (−) of the pretreatment control value” (30 mg/kg daily oral, 1 wk) was “(+156) percent”. For the same compound, the “NEFA, percent increase (+) or decrease (−) of the pretreatment control value” (“NEFA, percent increase (+) or decrease” for short) (30 mg/kg daily oral, 1 wk) was “(−29) percent”, the “Non-HDL-C, percent increase (+) or decrease (−) of the pretreatment control value” (30 mg/kg daily oral, 1 wk) was “(−23) percent” and the “TG, percent increase (+) or decrease (−) of the pretreatment control value” (shortened to “TG, percent increase (+) or decrease (−)”) (30 mg/kg daily oral, 1 wk) was “(−33) percent”. For the same compound, the “HDL-C, percent increase (+) or decrease (−) of the pretreatment control value” (30 mg/kg daily oral, 2 wk) was “(+147) percent”, the “HDL-C, percent increase (+) or decrease (−) of the pretreatment control value” (100 mg/kg daily oral, 1 wk) was “(+174) percent” and the “NEFA, percent increase (+) or decrease” value (100 mg/kg daily oral, 1 wk) was “(−33) percent”. The “Non-HDL-C, percent increase (+) or decrease (−) of the pretreatment control value” (100 mg/kg daily oral, 1 wk) was “(−42) percent”, the “TG, percent increase (+) or decrease (−)” value (100 mg/kg daily oral, 1 wk) was “(−60) percent” and the “HDL-C, percent increase (+) or decrease (−) of the pretreatment control value” (100 mg/kg daily oral, 2 wk) was “(+179) percent”. For the same compound, the “NEFA, percent increase (+) or decrease” value (100 mg/kg daily oral, 2 wk) was “(−45) percent”, the “Non-HDL-C, percent increase (+) or decrease (−) of the pretreatment control value” (100 mg/kg daily oral, 2 wk) was “(−29) percent” and the “TG, percent increase (+) or decrease (−)” value (100 mg/kg daily oral, 2 wk) was “(−54) percent”. For the same compound, the change in vivo at 100 mg/kg (168 h, 100 mg/kg daily oral, 1 wk, read-out: HDL-Cholesterol, Percent Change from Pre-Treatment) was 54%, the change in vivo at 100 mg/kg (168 h, 100 mg/kg daily oral, 1 wk, read-out: NonHDL-Cholesterol, Percent Change from Pre-Treatment) was -62% and the change in vivo at 100 mg/kg (168 h, 100 mg/kg daily oral, 1 wk, read-out: TG, Percent Change from Pre-Treatment) was -74%. For the same compound, the change in vivo at 100 mg/kg (336 h, 100 mg/kg daily oral, 2 wk, read-out: HDL-Cholesterol, Percent Change from Pre-Treatment) was 78%, the change in vivo at 100 mg/kg (336 h, 100 mg/kg daily oral, 2 wk, read-out: NonHDL-Cholesterol, Percent Change from Pre-Treatment) was -41% and the change in vivo at 100 mg/kg (336 h, 100 mg/kg daily oral, 2 wk, read-out: TG, Percent Change from Pre-Treatment) was -69%. For the same compound, the Glucose (3 mg/kg daily oral, 1 wk) was 99 ± 4 mg/dL, the HDL-C (3 mg/kg daily oral, 1 wk) was 36 ± 1 mg/dL and the NEFA (3 mg/kg daily oral, 1 wk) was 1.2 ± 0.16 mg/dL. It also gave a Non-HDL-C (3 mg/kg daily oral, 1 wk) of 24 ± 2 mg/dL, a TG (3 mg/kg daily oral, 1 wk) of 775 ± 92 mg/dL and an Insulin (3 mg/kg daily oral, 1 wk) of 10.7 ± 0.8 ng/dL. It also gave a Glucose (3 mg/kg daily oral, 2 wk) of 103 ± 3 mg/dL, an HDL-C (3 mg/kg daily oral, 2 wk) of 33 ± 1 mg/dL and an NEFA (3 mg/kg daily oral, 2 wk) of 1.5 ± 0.27 mg/dL. The Non-HDL-C (3 mg/kg daily oral, 2 wk) was 24 ± 3 mg/dL, the TG (3 mg/kg daily oral, 2 wk) was 857 ± 103 mg/dL and the Insulin (3 mg/kg daily oral, 2 wk) was 8.6 ± 0.5 ng/dL. It also gave a Glucose (10 mg/kg daily oral, 1 wk) of 105 ± 3 mg/dL, an HDL-C (10 mg/kg daily oral, 1 wk) of 47 ± 7 mg/dL and an NEFA (10 mg/kg daily oral, 1 wk) of 0.92 ± 0.09. The Non-HDL-C (10 mg/kg daily oral, 1 wk) was 26 ± 4^a mg/dl, the TG (10 mg/kg daily oral, 1 wk) was 692 ± 180 mg/dL and the Insulin (10 mg/kg daily oral, 1 wk) was 7.7 ± 1.0^a ng/dl. It also gave a Glucose (10 mg/kg daily oral, 2 wk) of 113 ± 3 mg/dL, an HDL-C (10 mg/kg daily oral, 2 wk) of 39 ± 5 mg/dL and an NEFA (10 mg/kg daily oral, 2 wk) of 1.5 ± 0.28 mg/dL. The Non-HDL-C (10 mg/kg daily oral, 2 wk) was 27 ± 4 mg/dL, the TG (10 mg/kg daily oral, 2 wk) was 814 ± 205 mg/dL and the Insulin (10 mg/kg daily oral, 2 wk) was 8.9 ± 1.3 ng/dL. For the same compound, the Glucose (30 mg/kg daily oral, 1 wk) was 115 ± 4 mg/dL, the HDL-C (30 mg/kg daily oral, 1 wk) was 53 ± 8^a mg/dl and the NEFA (30 mg/kg daily oral, 1 wk) was 1.0 ± 0.11. For the same compound, the Non-HDL-C (30 mg/kg daily oral, 1 wk) was 37 ± 4^a mg/dl, the TG (30 mg/kg daily oral, 1 wk) was 826 ± 92^a mg/dl and the Insulin (30 mg/kg daily oral, 1 wk) was 9.2 ± 1.3 ng/dL. For the same compound, the Glucose (30 mg/kg daily oral, 2 wk) was 118 ± 8 mg/dL, the HDL-C (30 mg/kg daily oral, 2 wk) was 50 ± 9^a mg/dl and the NEFA (30 mg/kg daily oral, 2 wk) was 1.1 ± 0.20 mg/dL. It also gave a Non-HDL-C (30 mg/kg daily oral, 2 wk) of 43 ± 5 mg/dL, a TG (30 mg/kg daily oral, 2 wk) of 962 ± 118 mg/dL and an Insulin (30 mg/kg daily oral, 2 wk) of 8.5 ± 1.8 ng/dL. The Glucose (100 mg/kg daily oral, 1 wk) was 113 ± 6 mg/dL, the HDL-C (100 mg/kg daily oral, 1 wk) was 66 ± 9^a mg/dl and the NEFA (100 mg/kg daily oral, 1 wk) was 0.81 ± 0.07. For the same compound, the Non-HDL-C (100 mg/kg daily oral, 1 wk) was 18 ± 3^a mg/dl, the TG (100 mg/kg daily oral, 1 wk) was 383 ± 49^a mg/dl and the Insulin (100 mg/kg daily oral, 1 wk) was 9.0 ± 1.0 ng/dL. The Glucose (100 mg/kg daily oral, 2 wk) was 122 ± 7 mg/dL, the HDL-C (100 mg/kg daily oral, 2 wk) was 68 ± 10^a mg/dl and the NEFA (100 mg/kg daily oral, 2 wk) was 0.66 ± 0.06. For the same compound, the Non-HDL-C (100 mg/kg daily oral, 2 wk) was 22 ± 3^a mg/dl, the TG (100 mg/kg daily oral, 2 wk) was 440 ± 58^a mg/dl and the Insulin (100 mg/kg daily oral, 2 wk) was 9.5 ± 0.9 ng/dL.
